Test results: the NIST ThermoML archive (doi:10.1021/je060271a)
Numbers after ± are expanded uncertainties.

Conditions: 343.15 K, Liquid, Vibrating tube method

## CCCCC(=O)OCC(COC(=O)CCCC)(COC(=O)CCCC)COC(=O)CCCC [pentaerythritol tetrapentanoate]
5413.1 kPa
  mass density: 982.8 ± 1.2 kg/m3
5435 kPa
  mass density: 982.7 ± 1.2 kg/m3
5461.9 kPa
  mass density: 982.8 ± 1.2 kg/m3
5505.6 kPa
  mass density: 982.8 ± 1.2 kg/m3
5528.3 kPa
  mass density: 982.7 ± 1.2 kg/m3
5555.3 kPa
  mass density: 982.9 ± 1.2 kg/m3
5578.3 kPa
  mass density: 982.9 ± 1.2 kg/m3
5601.1 kPa
  mass density: 982.8 ± 1.2 kg/m3
5652.8 kPa
  mass density: 983 ± 1.2 kg/m3
6775.7 kPa
  mass density: 983.7 ± 1.2 kg/m3
6868.5 kPa
  mass density: 983.8 ± 1.2 kg/m3
7157.9 kPa
  mass density: 984.1 ± 1.2 kg/m3
7189.4 kPa
  mass density: 984.1 ± 1.2 kg/m3
7222 kPa
  mass density: 984.1 ± 1.2 kg/m3
7362.2 kPa
  mass density: 984.3 ± 1.2 kg/m3
7507.8 kPa
  mass density: 984.3 ± 1.2 kg/m3
7543.3 kPa
  mass density: 984.3 ± 1.2 kg/m3
7586.1 kPa
  mass density: 984.4 ± 1.2 kg/m3
7622 kPa
  mass density: 984.5 ± 1.2 kg/m3
7658.5 kPa
  mass density: 984.4 ± 1.2 kg/m3
7695.9 kPa
  mass density: 984.5 ± 1.2 kg/m3
7740.8 kPa
  mass density: 984.5 ± 1.2 kg/m3
7779.3 kPa
  mass density: 984.5 ± 1.2 kg/m3
7819 kPa
  mass density: 984.5 ± 1.2 kg/m3
7858.9 kPa
  mass density: 984.6 ± 1.2 kg/m3
7901.3 kPa
  mass density: 984.7 ± 1.2 kg/m3
7933.4 kPa
  mass density: 984.7 ± 1.2 kg/m3
7965.2 kPa
  mass density: 984.7 ± 1.2 kg/m3
7997.4 kPa
  mass density: 984.8 ± 1.2 kg/m3
8035.4 kPa
  mass density: 984.7 ± 1.2 kg/m3
8067.7 kPa
  mass density: 984.8 ± 1.2 kg/m3
8100.4 kPa
  mass density: 984.6 ± 1.2 kg/m3
8139.1 kPa
  mass density: 984.8 ± 1.2 kg/m3
8172.2 kPa
  mass density: 984.9 ± 1.2 kg/m3
8205.9 kPa
  mass density: 984.8 ± 1.2 kg/m3
8240 kPa
  mass density: 984.8 ± 1.2 kg/m3
8280.4 kPa
  mass density: 985 ± 1.2 kg/m3
8314.6 kPa
  mass density: 984.8 ± 1.2 kg/m3
8349.6 kPa
  mass density: 985 ± 1.2 kg/m3
8390.6 kPa
  mass density: 985.1 ± 1.2 kg/m3
8425.6 kPa
  mass density: 985 ± 1.2 kg/m3
8461.4 kPa
  mass density: 985 ± 1.2 kg/m3
8504.7 kPa
  mass density: 985.1 ± 1.2 kg/m3
8540.9 kPa
  mass density: 985 ± 1.2 kg/m3
8577.6 kPa
  mass density: 985.2 ± 1.2 kg/m3
8620.4 kPa
  mass density: 985.2 ± 1.2 kg/m3
8653.7 kPa
  mass density: 985.2 ± 1.2 kg/m3
8686.4 kPa
  mass density: 985.2 ± 1.2 kg/m3
8725.9 kPa
  mass density: 985.3 ± 1.2 kg/m3
8759 kPa
  mass density: 985.2 ± 1.2 kg/m3
8793.5 kPa
  mass density: 985.3 ± 1.2 kg/m3
8834.4 kPa
  mass density: 985.3 ± 1.2 kg/m3
8868.3 kPa
  mass density: 985.2 ± 1.2 kg/m3
8902.8 kPa
  mass density: 985.3 ± 1.2 kg/m3
8937.8 kPa
  mass density: 985.4 ± 1.2 kg/m3
8979.2 kPa
  mass density: 985.4 ± 1.2 kg/m3
9014.2 kPa
  mass density: 985.4 ± 1.2 kg/m3
9057.6 kPa
  mass density: 985.5 ± 1.2 kg/m3
9093 kPa
  mass density: 985.5 ± 1.2 kg/m3
9128.9 kPa
  mass density: 985.5 ± 1.2 kg/m3
9165.6 kPa
  mass density: 985.6 ± 1.2 kg/m3
9210.7 kPa
  mass density: 985.6 ± 1.2 kg/m3
9247.8 kPa
  mass density: 985.6 ± 1.2 kg/m3
9284.8 kPa
  mass density: 985.6 ± 1.2 kg/m3
9330.2 kPa
  mass density: 985.6 ± 1.2 kg/m3
9369.1 kPa
  mass density: 985.6 ± 1.2 kg/m3
9408.2 kPa
  mass density: 985.8 ± 1.2 kg/m3
9447.9 kPa
  mass density: 985.6 ± 1.2 kg/m3
9495.3 kPa
  mass density: 985.9 ± 1.2 kg/m3
9536.5 kPa
  mass density: 985.8 ± 1.2 kg/m3
9579.2 kPa
  mass density: 985.9 ± 1.2 kg/m3
9627.1 kPa
  mass density: 985.8 ± 1.2 kg/m3
9659.1 kPa
  mass density: 985.9 ± 1.2 kg/m3
9689.8 kPa
  mass density: 986 ± 1.2 kg/m3
9720.2 kPa
  mass density: 986 ± 1.2 kg/m3
9749.7 kPa
  mass density: 986 ± 1.2 kg/m3
9785.3 kPa
  mass density: 986 ± 1.2 kg/m3
9815.5 kPa
  mass density: 986.1 ± 1.2 kg/m3
9845.4 kPa
  mass density: 986.1 ± 1.2 kg/m3
9881.3 kPa
  mass density: 986.2 ± 1.2 kg/m3
9911.4 kPa
  mass density: 986.2 ± 1.2 kg/m3
9942.4 kPa
  mass density: 986.2 ± 1.2 kg/m3
9979.5 kPa
  mass density: 986.2 ± 1.2 kg/m3
10011 kPa
  mass density: 986.2 ± 1.2 kg/m3
10043 kPa
  mass density: 986.1 ± 1.2 kg/m3
10082 kPa
  mass density: 986.4 ± 1.2 kg/m3
10117 kPa
  mass density: 986.1 ± 1.2 kg/m3
10149 kPa
  mass density: 986.3 ± 1.2 kg/m3
10181 kPa
  mass density: 986.3 ± 1.2 kg/m3
10213 kPa
  mass density: 986.3 ± 1.2 kg/m3
10252 kPa
  mass density: 986.3 ± 1.2 kg/m3
10284 kPa
  mass density: 986.3 ± 1.2 kg/m3
10318 kPa
  mass density: 986.4 ± 1.2 kg/m3
10358 kPa
  mass density: 986.4 ± 1.2 kg/m3
10391 kPa
  mass density: 986.4 ± 1.2 kg/m3
10425 kPa
  mass density: 986.5 ± 1.2 kg/m3
10465 kPa
  mass density: 986.6 ± 1.2 kg/m3
10500 kPa
  mass density: 986.5 ± 1.2 kg/m3
10535 kPa
  mass density: 986.6 ± 1.2 kg/m3
10577 kPa
  mass density: 986.5 ± 1.2 kg/m3
10612 kPa
  mass density: 986.6 ± 1.2 kg/m3
10647 kPa
  mass density: 986.6 ± 1.2 kg/m3
10690 kPa
  mass density: 986.5 ± 1.2 kg/m3
10726 kPa
  mass density: 986.8 ± 1.2 kg/m3
10762 kPa
  mass density: 986.7 ± 1.2 kg/m3
10806 kPa
  mass density: 986.8 ± 1.2 kg/m3
10842 kPa
  mass density: 986.8 ± 1.2 kg/m3
10879 kPa
  mass density: 986.8 ± 1.2 kg/m3
10923 kPa
  mass density: 986.9 ± 1.2 kg/m3
10960 kPa
  mass density: 986.9 ± 1.2 kg/m3
10999 kPa
  mass density: 986.9 ± 1.2 kg/m3
11045 kPa
  mass density: 986.9 ± 1.2 kg/m3
11084 kPa
  mass density: 987 ± 1.2 kg/m3
11122 kPa
  mass density: 987.1 ± 1.2 kg/m3
11162 kPa
  mass density: 986.9 ± 1.2 kg/m3
11209 kPa
  mass density: 987 ± 1.2 kg/m3
11248 kPa
  mass density: 987.2 ± 1.2 kg/m3
11296 kPa
  mass density: 987.1 ± 1.2 kg/m3
11336 kPa
  mass density: 987.2 ± 1.2 kg/m3
11377 kPa
  mass density: 987.2 ± 1.2 kg/m3
11417 kPa
  mass density: 987.2 ± 1.2 kg/m3
11467 kPa
  mass density: 987.3 ± 1.2 kg/m3
11508 kPa
  mass density: 987.3 ± 1.2 kg/m3
11551 kPa
  mass density: 987.4 ± 1.2 kg/m3
11602 kPa
  mass density: 987.3 ± 1.2 kg/m3
11645 kPa
  mass density: 987.3 ± 1.2 kg/m3
11689 kPa
  mass density: 987.4 ± 1.2 kg/m3
11740 kPa
  mass density: 987.4 ± 1.2 kg/m3
11784 kPa
  mass density: 987.5 ± 1.2 kg/m3
11828 kPa
  mass density: 987.4 ± 1.2 kg/m3
11881 kPa
  mass density: 987.6 ± 1.2 kg/m3
11926 kPa
  mass density: 987.6 ± 1.2 kg/m3
11972 kPa
  mass density: 987.7 ± 1.2 kg/m3
12028 kPa
  mass density: 987.6 ± 1.2 kg/m3
12076 kPa
  mass density: 987.7 ± 1.2 kg/m3
12126 kPa
  mass density: 987.7 ± 1.2 kg/m3
12187 kPa
  mass density: 987.8 ± 1.2 kg/m3
12237 kPa
  mass density: 987.9 ± 1.2 kg/m3
12270 kPa
  mass density: 988 ± 1.2 kg/m3
12298 kPa
  mass density: 987.8 ± 1.2 kg/m3
12322 kPa
  mass density: 987.9 ± 1.2 kg/m3
12346 kPa
  mass density: 987.8 ± 1.2 kg/m3
12374 kPa
  mass density: 988 ± 1.2 kg/m3
12398 kPa
  mass density: 987.9 ± 1.2 kg/m3
12423 kPa
  mass density: 988 ± 1.2 kg/m3
12452 kPa
  mass density: 987.9 ± 1.2 kg/m3
12476 kPa
  mass density: 988.1 ± 1.2 kg/m3
12501 kPa
  mass density: 988.1 ± 1.2 kg/m3
12530 kPa
  mass density: 988 ± 1.2 kg/m3
12555 kPa
  mass density: 988 ± 1.2 kg/m3
12580 kPa
  mass density: 988 ± 1.2 kg/m3
12610 kPa
  mass density: 988 ± 1.2 kg/m3
12636 kPa
  mass density: 988 ± 1.2 kg/m3
12660 kPa
  mass density: 988.1 ± 1.2 kg/m3
12691 kPa
  mass density: 988.1 ± 1.2 kg/m3
12717 kPa
  mass density: 988.2 ± 1.2 kg/m3
12742 kPa
  mass density: 988.1 ± 1.2 kg/m3
12773 kPa
  mass density: 988.2 ± 1.2 kg/m3
12799 kPa
  mass density: 988.2 ± 1.2 kg/m3
12824 kPa
  mass density: 988.3 ± 1.2 kg/m3
12856 kPa
  mass density: 988.3 ± 1.2 kg/m3
